Source: ChEMBL document CHEMBL6092137, “Synergistic immune augmentation enabled by covalently conjugating TLR4 and NOD2 agonists” (Eur J Med Chem, 2024)
Active and inactive are the calls of the source. The rule behind the calls is not given here.

What was measured:
BMDC [1] = experiment: Immunostimulatory activity in C57BL/6 mouse BMDC cells assessed as increase in IL-6 level at 9.3 uM incubated for 20 hrs in presence of GSK717 inhibitor by ELISA; assay type: functional, cell-based
[2] = Induction of mouse RAW264.7 cell maturation assessed as change in CD80 positive cells incubated for 18 hrs by staining based flow cytometric analysis relative to control; assay type: functional
[3] = Induction of mouse BMDC cell maturation assessed as change in CD86 positive cells incubated for 18 hrs by staining based flow cytometric analysis relative to control; assay type: functional
[4] = Induction of mouse BMDC cell maturation assessed as change in CD80 positive cells incubated for 18 hrs by staining based flow cytometric analysis relative to control; assay type: functional
[5] = Induction of mouse RAW264.7 cell maturation assessed as change in CD86 positive cells incubated for 18 hrs by staining based flow cytometric analysis relative to control; assay type: functional
THP-1 = experiment: Cytotoxicity against human THP-1 cells assessed as reduction in cell viability by MTT assay; assay type: toxicity, cell-based
[6] = Induction of mouse BMDC cell maturation assessed as change in CD86 positive cells incubated for 18 hrs in the presence of muramyl dipeptide by staining based flow cytometric analysis relative to control; assay type: functional
[7] = Induction of mouse RAW264.7 cell maturation assessed as fold increase in CD80 positive cells incubated for 18 hrs in the presence of muramyl dipeptide by staining based flow cytometric analysis relative to RC529-NH2; assay type: functional
[8] = Induction of mouse RAW264.7 cell maturation assessed as change in CD86 positive cells incubated for 18 hrs in the presence of muramyl dipeptide by staining based flow cytometric analysis relative to control; assay type: functional
[9] = Induction of mouse RAW264.7 cell maturation assessed as fold increase in CD80 positive cells incubated for 18 hrs in the presence of muramyl dipeptide by staining based flow cytometric analysis relative to muramyl dipeptide; assay type: functional
[10] = Induction of mouse BMDC cell maturation assessed as change in CD80 positive cells incubated for 18 hrs in the presence of muramyl dipeptide by staining based flow cytometric analysis relative to control; assay type: functional
BMDC [11] = experiment: Immunostimulatory activity in C57BL/6 mouse BMDC cells assessed as increase in IL-6 level at 9.3 uM incubated for 20 hrs in presence of TAK242 inhibitor by ELISA; assay type: functional, cell-based
[12] = Induction of mouse RAW264.7 cell maturation assessed as change in CD80 positive cells incubated for 18 hrs in the presence of muramyl dipeptide by staining based flow cytometric analysis relative to control; assay type: functional
T-cell [13] = experiment: Immunostimulatory activity in mouse spleen T-lymphocytes assessed as fold increase in proportion of TNF-alpha and IFN-gamma double-positive secreting CD4+ cells and measured on day 42 in the presence of muramyl dipeptide by staining based flow cytometric analysis relative to RC529; assay type: functional; settings: time 42 day
Mus musculus [14] = experiment: Induction of innate immunity in BALB/c mouse assessed as fold increase in IL-6 level in serum at 5.36 ug, ip measured after 2 hrs in presence of muramyl dipeptide by ELISA relative to muramyl dipeptide; assay type: functional; settings: dose 5.36 µg
[15] = Induction of mouse RAW264.7 cell maturation assessed as fold increase in CD80 positive cells incubated for 18 hrs in the presence of muramyl dipeptide by staining based flow cytometric analysis relative to RC529; assay type: functional
T-cell [16] = experiment: Immunostimulatory activity in mouse spleen T-lymphocytes assessed as fold increase in proportion of TNF-alpha and IFN-gamma double-positive secreting CD4+ cells and measured on day 42 in the presence of muramyl dipeptide by staining based flow cytometric analysis relative to muramyl dipeptide; assay type: functional; settings: time 42 day
Mus musculus [17] = organism: Mus musculus; experiment: Activation of adaptive immune response in ovalbumin immunized mouse model assessed as fold increase in IgG titers incubated for 1 hrs in presence of muramyl dipeptide and measured on day 42 relative to muramyl dipeptide; assay type: functional
Mus musculus [18] = experiment: Induction of innate immunity in BALB/c mouse assessed as fold increase in IL-6 level in serum at 16.12 ug, ip measured after 2 hrs in presence of muramyl dipeptide by ELISA relative to RC529; assay type: functional; settings: dose 16.12 µg
Mus musculus [19] = experiment: Induction of innate immunity in BALB/c mouse assessed as fold increase in IL-6 level in serum at 16.12 ug, ip in liposome formulation measured after 2 hrs by ELISA relative to RC529-NH2; assay type: functional; settings: dose 16.12 µg
Mus musculus [20] = organism: Mus musculus; experiment: Activation of adaptive immune response in ovalbumin immunized mouse model assessed as fold increase in IgG titers incubated for 1 hrs in presence of muramyl dipeptide and measured on day 42 relative to RC529; assay type: functional

| Compound | Activity [2] | Activity [3] | Activity [4] | Activity [5] | Activity (THP-1) | Activity [6] | Activity [8] | fold change (FC) [9] | Activity [10] | Activity (BMDC [11]) | Activity [12] | other results |
| --- | --- | --- | --- | --- | --- | --- | --- | --- | --- | --- | --- | --- |
| CC(=O)N[C@@H]1[C@@H](O[C@H](C)C(=O)N[C@@H](C)C(=O)N[C@H](CCC(=O)O)C(N)=O)[C@H](O)[C@@H](CO)O[C@H]1O [MURAMYLDIPEPTIDE] | 12.2% | 11.4% | 13.6% | 10.8% |  |  |  |  |  |  |  | Activity (BMDC [1]): inactive |
| CCOC(=O)C1=CCCC[C@H]1S(=O)(=O)Nc1ccc(F)cc1Cl [RESATORVID] |  |  |  |  | Non-toxic |  |  |  |  |  |  |  |
| CCCCCCCCCCCCCC(=O)O[C@H](CCCCCCCCCCC)CC(=O)NCCO[C@@H]1O[C@H](CN)[C@@H](OP(=O)(O)O)[C@H](OC(=O)C[C@@H](CCCCCCCCCCC)OC(=O)CCCCCCCCCCCCC)[C@H]1NC(=O)C[C@@H](CCCCCCCCCCC)OC(=O)CCCCCCCCCCCCC | 14.7% | 12.9% | 15.3% | 10.7% |  | 14.4% | 10.9% | 1.3 | 22.8% | inactive | 16.2% | fold change (FC) [7]: 1.1 |
| CCCCCCCCCCCCCC(=O)O[C@H](CCCCCCCCCCC)CC(=O)NCCO[C@@H]1O[C@H](CO)[C@@H](OP(=O)(O)O)[C@H](OC(=O)C[C@@H](CCCCCCCCCCC)OC(=O)CCCCCCCCCCCCC)[C@H]1NC(=O)C[C@@H](CCCCCCCCCCC)OC(=O)CCCCCCCCCCCCC.CCN(CC)CC | 26.9% | 14% | 21.6% | 13.1% |  | 14.6% | 13.4% | 2.4 | 24.1% | inactive | 28.7% | fold change (FC) (T-cell [13]): 1.2; fold change (FC) (Mus musculus [14]): 17; fold change (FC) [15]: 1.1; fold change (FC) (T-cell [16]): 1.2; fold change (FC) (Mus musculus [17]): 1.9; fold change (FC) (Mus musculus [18]): 1.04; fold change (FC) (Mus musculus [19]): 21; fold change (FC) (Mus musculus [20]): 1.1 |
| CN(CCc1nc2ccccc2n1CC(=O)Nc1ccc2c(c1)CCC2)C(=O)c1ccccc1 |  |  |  |  | Non-toxic |  |  |  |  |  |  |  |
